No end group written: not given here.
T1: human TAS1R2-WT/TAS1R3-L95P (Homo sapiens, UniProt Q7RTX0+Q8TE23, L95P)
T1 construct: expressed in transfected cells; host or cells: HEK293T stably expressing Gα16gust44
T1 sequence (Q8TE23 20-839): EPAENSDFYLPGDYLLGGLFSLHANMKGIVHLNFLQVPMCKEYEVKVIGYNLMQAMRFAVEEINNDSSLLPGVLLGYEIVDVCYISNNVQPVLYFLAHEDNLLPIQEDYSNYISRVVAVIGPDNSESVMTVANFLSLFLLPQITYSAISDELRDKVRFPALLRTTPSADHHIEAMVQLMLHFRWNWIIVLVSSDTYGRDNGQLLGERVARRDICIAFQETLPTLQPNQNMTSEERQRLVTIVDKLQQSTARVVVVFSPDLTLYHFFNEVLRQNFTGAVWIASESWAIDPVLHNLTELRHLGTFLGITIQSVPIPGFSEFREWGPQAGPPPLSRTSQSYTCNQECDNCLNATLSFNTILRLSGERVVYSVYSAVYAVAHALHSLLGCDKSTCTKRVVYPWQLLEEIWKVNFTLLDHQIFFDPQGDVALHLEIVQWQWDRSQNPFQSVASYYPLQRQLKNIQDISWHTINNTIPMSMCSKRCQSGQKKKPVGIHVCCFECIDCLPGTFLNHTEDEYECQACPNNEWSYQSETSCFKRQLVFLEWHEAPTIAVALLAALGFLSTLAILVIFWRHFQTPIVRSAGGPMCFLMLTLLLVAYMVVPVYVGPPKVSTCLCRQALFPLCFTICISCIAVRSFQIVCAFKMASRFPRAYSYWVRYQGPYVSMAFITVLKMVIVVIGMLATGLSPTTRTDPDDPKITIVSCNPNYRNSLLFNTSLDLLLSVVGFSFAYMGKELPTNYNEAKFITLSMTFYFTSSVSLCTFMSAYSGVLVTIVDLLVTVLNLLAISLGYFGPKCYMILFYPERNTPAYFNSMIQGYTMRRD
T1 sequence (Q7RTX0 21-852 L95P): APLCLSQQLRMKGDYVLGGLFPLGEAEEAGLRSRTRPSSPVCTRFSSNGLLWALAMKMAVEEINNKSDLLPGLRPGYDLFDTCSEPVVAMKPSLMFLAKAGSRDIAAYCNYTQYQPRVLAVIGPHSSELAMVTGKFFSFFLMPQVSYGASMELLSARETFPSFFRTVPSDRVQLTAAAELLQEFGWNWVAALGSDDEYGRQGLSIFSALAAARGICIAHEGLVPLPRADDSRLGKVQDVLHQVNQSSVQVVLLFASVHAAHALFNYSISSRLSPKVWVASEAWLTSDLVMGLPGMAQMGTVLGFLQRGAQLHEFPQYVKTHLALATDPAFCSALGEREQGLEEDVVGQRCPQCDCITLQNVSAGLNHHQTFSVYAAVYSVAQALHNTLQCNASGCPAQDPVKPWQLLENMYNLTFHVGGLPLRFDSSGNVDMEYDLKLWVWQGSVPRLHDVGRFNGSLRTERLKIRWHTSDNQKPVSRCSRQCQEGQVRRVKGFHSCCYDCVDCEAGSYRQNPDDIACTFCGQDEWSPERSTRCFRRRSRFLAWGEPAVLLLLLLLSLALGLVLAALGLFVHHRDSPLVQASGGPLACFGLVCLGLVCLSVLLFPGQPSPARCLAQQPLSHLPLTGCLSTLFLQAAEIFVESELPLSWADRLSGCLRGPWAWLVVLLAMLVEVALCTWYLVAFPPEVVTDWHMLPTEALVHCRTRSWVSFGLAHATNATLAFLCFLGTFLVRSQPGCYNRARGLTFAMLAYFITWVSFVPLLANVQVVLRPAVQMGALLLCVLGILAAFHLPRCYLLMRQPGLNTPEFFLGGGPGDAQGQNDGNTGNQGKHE


Biological target: T1, human TAS1R2-WT/TAS1R3-L95P
Assay: Calcium mobilisation assay, TAS1R2-WT with TAS1R3 variant L95P
Type: cell-based
Details: for Max ΔF/F0: maximal signal amplitude; for Max ΔF/F0 / EC50: "-": no activation
Source text: The coding sequences for TAS1R2 and TAS1R3 were commercially synthesised, and the human codon was optimised for expression in human cells. The coding sequences of human TAS1R2 and TAS1R3 were subcloned and inserted into the mammalian expression vectors pcDNA6/myc-HisA and pcDNA4/myc-HisA (Invitrogen; Thermo Fisher Scientific; Illkirch, France) between the EcoRI and NotI restriction sites, generating the plasmids pcDNA6-TAS1R2 and pcDNA4-TAS1R3, respectively. To increase protein expression in mammalian cells, an upstream start codon was used, which was a sequence called MAX, corresponding to the QBI SP163 element also described in pcDNA4-HisMax (Invitrogen; Thermo Fisher Scientific; Illkirch, France). To measure the expression level of the receptor by immunohistochemistry, we used the FLAG sequence ([…]) in the C-terminal position, which encodes the FLAG tag epitope. SNP variants of TAS1R2 and TAS1R3 were constructed based on […], respectively, using site-directed mutagenesis (Genewiz; Leipzig, Germany).
The HEK293T cells were kindly provided by Jay P. Slack (Givaudan Flavors Corporation; Cincinnati, OH, USA). HEK293T cells stably transfected with Gα16gust44 [43, 67] were seeded in poly-D-lysine-coated clear-bottom black 96-well plates (0.35 × 10^5 cells/well) in high-glucose DMEM supplemented with 2 mM GlutaMAX, 10% dialysed foetal bovine serum with penicillin/streptomycin and G418 (400 μg/mL) at 37 °C and 6.3% CO2 in a humidified atmosphere as previously reported. […] As a negative control, HEK293T cells were mock-transfected with the empty expression vector. After a further 24 h of incubation, the HEK293T cells were washed with C1 buffer (130 mM NaCl, 5 mM KCl, 10 mM HEPES pH 7.4 and 2 mM CaCl2). The 96-well plates containing the cells were then stimulated with sweet-tasting compounds. […] Different concentration ranges were tested depending on the sweet compound injected. The Ca^2+ changes were expressed as fractional changes in fluorescent light intensity: ΔF/F = (F − F0)/F0, where F was the fluorescent light intensity at each point, and F0 was the value of emitted fluorescent light prior to stimulus application. To calculate dose–response relationships, the changes in fluorescence upon stimulus application were averaged, mock-subtracted and baseline-corrected. The dose–response data obtained were adjusted using a 4-parameter logistic equation. The half-maximal effective concentrations (EC50 values) and maximal signal amplitudes were calculated using SigmaPlot software (version 15.0) (Systat Software; San Jose, CA, USA).
For in vitro calcium mobilisation assay performed on hTAS1R2-SNPs, hTAS1R3-SNPs and mTAS1R3-I60T, 6 to 7 concentrations were tested for each sweet compound, plus buffer alone. All concentration–receptor combinations were measured in duplicate, and each experiment was repeated at least 4 times (8 wells/concentration). Results were expressed for each concentration as ΔF/F mean ± SEM and represented as dose–response curves.

Molecule	R1 = Variant EC50/WT EC50	Max ΔF/F0	EC50 [µM]
C[C@H](CC[C@@H](O[C@@H]1O[C@H](CO[C@@H]2O[C@H](CO)[C@@H](O)[C@H](O)[C@H]2O)[C@@H](O)[C@H](O)[C@H]1O[C@@H]1O[C@H](CO)[C@@H](O)[C@H](O)[C@H]1O)C(C)(C)O)[C@H]1CC[C@@]2(C)[C@@H]3CC=C4[C@@H](CC[C@H](O[C@@H]5O[C@H](CO[C@@H]6O[C@H](CO)[C@@H](O)[C@H](O)[C@H]6O)[C@@H](O)[C@H](O)[C@H]5O)C4(C)C)[C@]3(C)[C@H](O)C[C@]12C [Mogroside V, mogroside V]	8.4	0.08	
C=C(C)[C@@H]1CC=C(/C=N/O)CC1 [Perillartine, perillartine]	2.5	0.14 ± 0.02	33.9 ± 2.8
brazzein (QDKCKKVYENYPVSKCQLANQCNYDCKLDKHARSGECFYDEKRNLQCICDYCEY; ends and bridges not checked; cysteine pairing not given here; UniProt P56552 1-54, looked up) [sweet-tasting protein obtained by recombinant production using the yeast Pichia pastoris]	19.3	0.10 ± 0.05	

Now from value to molecule:

R1 = Variant EC50/WT EC50	Max ΔF/F0	EC50 [µM]	Molecule
2.6	0.89 ± 0.01		thaumatin
		27.4 ± 5.8	thaumatin (protein, Eight disulfides, sweet-tasting plant protein, E957) ATFEIVNRCSYTVWAAASKGDAALDAGGRQLNSGESWTINVEPGTKGGKIWARTDCYFDDSGSGICKTGDCGGLLRCKRFGRPPTTLAEFSLNQYGKDYIDISNIKGFNVPMDFSPTTRGCRGVRCAADIVGQCPAKLKAPGGGCNDACTVFQTSEYCCTTGKCGPTEYSRFFKRLCPDAFSYVLDKPTTVTCPGSSNYRVTFCPTA

From paper PMC11945486, “TAS1R2/TAS1R3 Single-Nucleotide Polymorphisms Affect Sweet Taste Receptor Activation by Sweeteners: The SWEET Project” (Nutrients, 2025)
